Values after ≈ are worked out from the molar mass of the structure shown. One block for each compound: values may come before it. Residues, ends and D or L forms follow the SMILES beside them. *: point of attachment. Cbz = O=C(OCc1ccccc1)*; CH2F = FC*
What was measured:
[1] = tested on: PKC-δ; assay: Western blotting and subcellular fractionation for PKC-δ in U937 cells; assay type: cell-based
Procedure: U937 cells were treated with PMA (200 nM) or bortezomib (100 ng/ml) for 2 and 4 hours and cells were harvest for western blotting with antibody against PKC-δ. Same blot was probed with actin antibody as loading controls. […] U937 cells were treated with various concentrations of bortezomib and cells were subjected to subcellular fractionation to isolate mitochondria and cytoplasm. The whole cell lysates and fractions were analyzed with antibody against PKC-δ. […] U937 cells were treated with bortezomib (50 ng/ml) and/or caspase inhibitor BAF (30 μM) for 16 hours. Whole cell lysates were analyzed by western blotting with the PKC-δ antibody. […] Cells were treated with PMA (200 nM) for 6, 9 and 12 hours and subjected to subcellular fractionation. Western blot was probed with the PKC-δ antibody. M: mitochondria; C: cytoplasm.
(§1) U937 cells were grown in RPMI with 10% fetal bovine serum and L-glutamine. Bortezomib was from Millennium Pharmaceutical Corp. (Cambridge, Mass.). Rottlerin was from Sigma (St. Louis, Mo.). PKC-δ monoclonal antibody was from BD Transduction Laboratories (San Jose, Calif.). Boc-D(Ome)-FMK (BAF) and Go6976 were from Calbiochem (San Diego, Calif.). The TUNEL assay (terminal deoxynucleotidyltransferase-mediated dUTP-biotin nick end labeling) was from Roche (Switzerland). Subcellular fractionation and western blotting were performed as described (Chen Jet al. Mol Cancer Ther. 2002;1:961-967).

[2] = tested on: U937 cells; assay: TUNEL assay of apoptosis in U937 cells; assay type: cell-based; settings: for TUNEL positivity, time course: 50 ng/ml bortezomib
Procedure: […] Cells were harvested and fixed for TUNEL assays. The percentages of the TUNEL positive cells are indicated.
as §1

[3] = tested on: HeLa cells; assay: Mitochondrial potential by MitoTracker Green and flow cytometry in HeLa cells; assay type: cell-based; settings: 50 μM Z-VAD or 5 μM CsA 30 min, then AD198 16 h
Procedure: Cells were incubated with MitoTracker Green at 37° C. for 20 min followed by flow cytometry analysis. The histogram represents the means±standard deviations from three independent experiments.

[4] = tested on: HeLa cells; assay: Apoptosis by PI staining and flow cytometry (subG1 population) in HeLa cells; assay type: cell-based; settings: HeLa cells, 50 μM Z-VAD or 5 μM CsA 30 min, then AD198 16 h
Procedure: Cell culture, transfection and treatment—HeLa cells were cultured in Dulbecco's modified Eagle's medium (DMEM) containing 10% fetal bovine serum, 2 mM L-glutamine and penicillin (100 units/ml)-streptomycin (100 μg/ml) at 37° C. in a humidified 5% CO2 atmosphere. HeLa cells at 90% confluence were transfected with different mammalian expression vectors using Lipofectamin 2000 according to the manufacturer's protocol (Invitrogen Inc., Carlsbad, Calif.). At 24 h or 48 h after transfection, cells were treated with 1:100 dilution of AD198 that was dissolved in dimethyl sulfoxide (DMSO). For down-regulation of PLS3, HeLa cells at 50% confluence were transfected with siRNA against PLS3 or a scrambled control. At 48 h, cells were treated with AD198 for 16 h and harvested for flow cytometry. The whole cell lysate was extracted for analysis with Western blotting.
Analysis of apoptosis and determination of the transmembrane potential in mitochondria—Cell death was quantified by propidium iodide (PI) staining, followed by flow cytometry (Becton-Dickinson). HeLa cells were fixed in 0.5 ml cold 70% ethanol at −20° C. overnight. Cell pellet were resuspended in 300 μl of PBS containing 0.025 mg/ml PI, 0.05% Triton X-100, 0.1 mg/ml RNase A and incubated at room temperature for 30 min. The DNA content was evaluated by FACScan. For mitochondrial potential analysis, HeLa cells were incubated with MitoTracker Green at 37° C. for 20 min. The cells were collected and washed with PBS and analyzed by FACScan.
Cell culture, transfection, selection and treatment—HeLa cells were cultured in Dulbecco's modified Eagle's medium (DMEM) with 10% fetal bovine serum, 2 mM L-glutamine, 100 units/ml penicillin and 100 μg/ml streptomycin at 37° C. HeLa cells at 90% confluence were transfected with different mammalian expression vectors or siRNA using Lipofectamin 2000 according to the manufacturer's protocol (Invitrogen Inc., Carlsbad, Calif.). At 48 h after transfection, cells were incubated with 5 μM AD198 or dimethyl sulfoxide (DMSO) for 4 h or 16 h. After transfection, cells were selected with 1 mg/ml G418 for 2 wk. After corresponding mock-transfected cells were killed by G418, the concentration of G418 was decreased to 0.5 mg/ml and maintained for another 2 wk. The whole cell lysates or subcellular fractions were extracted for Western blotting analysis (Liu et al. (2003)).
Analysis of apoptosis—HeLa cells were harvested and fixed in 70% ethanol at −20° C. overnight. Cells were then washed with PBS and stained with 0.025 mg/ml propidium iodide (PI), 0.05% Triton X-100, 0.1 mg/ml RNase A for 30 min at room temperature. The DNA content was analyzed by FACScan (Becton-Dickinson), and the subG0/G1 population was used to represent apoptosis.

[5] = tested on: PLS3; assay: PLS3 threonine phosphorylation: Ni-bead pulldown of His-tagged PLS3, Western blot with PT antibody, HeLa cells; assay type: cell-based; settings: HeLa cells, AD198 (5 μM) along with Z-VAD or CsA, 2 h
Procedure: Pulldown of His-tagged proteins from transfected HeLa cells—Transfected HeLa cells were washed with ice-cold phosphate-buffered saline (PBS) and incubated in the lysis buffer (50 mM NaH2PO4, 500 mM NaCl, 20 mM imidazole, 1% Triton X-100, 20 mM 2-mercaptoethanol, pH8.0) for 5 min and sonicated briefly on ice. The lysates were centrifuged at 10,000×g for 10 min at 4° C. The supernatant was saved and the protein concentration was measured with the Bio-Rad protein assay (Bio-Rad Laboratories, Hercules, Calif.) and adjusted to same concentrations for each sample. The supernatants were incubated with Ni-beads on a shaker for 2 h at 4° C. Beads were then pelleted at 800×g for 2 min at 4° C. and washed with ice-cold wash buffer (50 mM NaH2PO4, 500 mM NaCl, 20 mM imidazole, 1% Triton X-100, pH8.0) for five times. Beads were resuspended in SDS sample buffer and analyzed by Western blotting.
Western blot analysis—Equal amounts of protein were analyzed by 10% SDS-PAGE and electrotransferred to Immobilon-P membranes (Millipore Corporation, Bedford, Mass.). Monoclonal PKC-δ, PT, and β-actin and polyclonal VDAC antibodies were used at 1:1,000 and polyclonal PLS3 antibody was used at 1:2,000 for immunoblotting. Secondary anti-mouse or anti-rabbit antibodies conjugated with horseradish peroxidase were used at 1:2,000 and incubated with the membrane for 1 h at room temperature. […]

[6] = monomeric boronic acid; pH range of 2-6.5; cited from earlier work
[7] = U937 cells, 2 and 4 hours, PMA 200 nM, bortezomib 100 ng/ml
[8] = U937 cells, bortezomib 16 hours

Compound: COC(=O)CC(NC(=O)OC(C)(C)C)C(=O)CF (stereo not drawn) [BAF, Boc-D(Ome)-FMK]
effect on bortezomib-induced 32 kD PKC-δ band ([1]; bortezomib (50 ng/ml) and BAF (30 μM), 16 hours): disappearance of this 32 kD band

Compound: Cn1c2ccccc2c2c3c(c4c5ccccc5n(CCC#N)c4c21)CNC3=O [Go6976]
effect on bortezomib-induced apoptosis (TUNEL) ([2]; Go6976 (200 nM) with bortezomib, 16 hours): could not prevent bortezomib-induced apoptosis

Compound: CCCCCCCCCCCCCC(=O)O[C@@H]1[C@@H](C)[C@@]2(O)[C@@H](C=C(CO)C[C@]3(O)C(=O)C(C)=C[C@@H]23)[C@@H]2C(C)(C)[C@]12OC(C)=O [PMA]
PKC-δ protein level [1, 7]: down-regulated PKC-δ
PKC-δ localization after subcellular fractionation ([1]; U937 cells, PMA (200 nM) 6, 9 and 12 hours): full-length PKC-δ and its degradation products in mitochondria

Compound: CC(NC(=O)C(NC(=O)OCc1ccccc1)C(C)C)C(=O)NC(CC(=O)O)C(=O)CF (stereo not drawn) [Z-VAD] (Cbz-Val-Ala-Asp-CH2F; configuration not given here)
effect on AD198-induced mitochondrial permeability transition / loss of mitochondrial potential [3]: could not block
effect on AD198-induced apoptosis [4]: suppressed
effect on AD198-induced threonine phosphorylation of PLS3 [5]: not affected

IC50 ([2]; Homo sapiens, U-937, U937 cells): 0.01 to 0.05 µg/mL (≈ 0.026 to 0.13 µM)
Compound: CC(C)C[C@H](NC(=O)[C@H](Cc1ccccc1)NC(=O)c1cnccn1)B(O)O [bortezomib, [(1R)-3-methyl-1-[[(2S)-1-oxo-3-phenyl-2-[(pyrazinylcarbonyl)amino]propyl]amino]butyl] boronic acid]
PKC-δ protein level [1, 7]: induced an increase of PKC-δ
32 kD PKC-δ fragment [1, 8]: new band at 32 kD
PKC-δ protein level [1, 8]: the level of PKC-δ decreased
TUNEL positivity, time course ([2]; 6 hours): did not become TUNEL positive
TUNEL positivity, time course ([2]; 16 h): strongly positive
concentration at which cells became TUNEL positive ([2]; U937 cells): 5 ng/mL
apoptosis by TUNEL assays ([2]; bortezomib 5 ng/ml, 16 hours): 8.02%
apoptosis by TUNEL assays ([2]; bortezomib 10 ng/ml, 16 hours): 19.85%
apoptosis by TUNEL assays ([2]; bortezomib 50 ng/ml, 16 hours): 76.07%
solubility in water [6]: 3300 to 3800 µg/mL

Compound: CC(=O)c1c(O)c(C)c(O)c(Cc2c(O)c3c(c(C(=O)/C=C/c4ccccc4)c2O)OC(C)(C)C=C3)c1O [rottlerin]
TUNEL positive cells with addition of rottlerin ([2]; bortezomib 5 ng/ml + rottlerin (10 μM), 16 hours): 4.35%
TUNEL positive cells with addition of rottlerin ([2]; bortezomib 10 ng/ml + rottlerin (10 μM), 16 hours): 8.55%
TUNEL positive cells with addition of rottlerin ([2]; bortezomib 50 ng/ml + rottlerin (10 μM), 16 hours): 33.07%

From patent US20080249043A1, “Methods and Compositions Involving Protein Kinase C-Delta” (priority 2004, published 2008)
